Measurements taken from patent US6476030B1, “Pyrazolo-triazine derivatives as ligands for GABA receptors” (Merck Sharp & Dohme Ltd., priority 1998, dated 2002).
Structures can show the parent of a compound that is named as a salt.

Compared with `Cc1cnc(COc2nn3c(-c4ccccc4F)nncc3c2-c2ccccc2F)s1` [Example 72, 3,7-bis(2-Fluorophenyl)-2-(5-methylthiazol-2-ylmethoxy)pyrazolo[1,5-d][1,2,4]triazine], `Cc1csc(COc2nn3c(-c4ccccc4F)nncc3c2-c2ccccc2F)n1` [Example 71, 3,7-bis(2-Fluorophenyl)-2-(4-methylthiazol-2-ylmethoxy)pyrazolo[1,5-d][1,2,4]triazine] is higher in melting point: 154 °C for the first, 176 °C for the second.

`Cn1ncnc1COc1nn2c(-c3ccccc3F)nncc2c1I` [Example 96, 7-(2-Fluorophenyl)-3-iodo-2-(2-methyl-2H-[1,2,4]triazol-3-ylmethoxy)-pyrazolo[1,5-d][1,2,4]triazine] and `Cn1ncnc1COc1nn2c(-c3ccccc3F)nncc2c1Br` [Example 17, 3-Bromo-7-(2-fluorophenyl)-2-(2-methyl-2H-[1,2,4]triazol-3-ylmethoxy)pyrazolo[1,5-d][1,2,4]triazine] cannot be ordered by melting point: 218 to 219 °C for the first, 215 to 219 °C for the second.

Going from `Cc1cccc(COc2nn3c(-c4ccccc4F)nncc3c2-c2ccccc2F)n1` [Example 62, 3,7-bis(2-Fluorophenyl)-2-(6-methylpyridin-2-ylmethoxy)pyrazolo[1,5-d][1,2,4]triazine] to `Cc1cccnc1COc1nn2c(-c3ccccc3F)nncc2c1-c1ccccc1F` [Example 69, 3,7-bis(2-Fluorophenyl)-2-(3-methylpyridin-2-ylmethoxy)pyrazolo[1,5-d][1,2,4]triazine], the melting point falls from 197 °C to 69 °C.

First: Cn1ncnc1COc1nn2c(-c3cc(F)ccc3F)nncc2c1C(C)(C)C [Example 21, 7-(2,5-Difluorophenyl)-3-(1,1-dimethylethyl)-2-(2-methyl-2H-[1,2,4]triazol-3-ylmethoxy)pyrazolo[1,5-d][1,2,4]triazine]
Second: CCn1ncnc1COc1nn2c(-c3cc(F)ccc3F)nncc2c1C(C)(C)CC [Example 33, 7-(2,5-Difluorophenyl)-3-(1,1-dimethylpropyl)-2-(2-ethyl-2H-[1,2,4]triazol-3-ylmethoxy)pyrazolo[1,5-d][1,2,4]triazine]
The melting point of the first is higher: 144 °C for the first, 85 to 86 °C for the second.

First: CCn1ncnc1COc1nn2c(-c3ccccc3F)nncc2c1-c1cccs1 [Example 92, 2-(2-Ethyl-2H-[1,2,4]triazol-3-ylmethoxy)-7-(2-fluorophenyl)-3-(thien-2-yl)pyrazolo[1,5-d][1,2,4]triazine]
Second: CCn1ncnc1COc1nn2c(-c3ccccc3F)nncc2c1-c1ccccc1F [Example 58, 2-(2-Ethyl-2H-[1,2,4]triazol-3-ylmethoxy)-3,7-bis(2-fluorophenyl)-pyrazolo[1,5-d][1,2,4]triazine]
The melting point of the first is higher: 190 to 192 °C for the first, 164 °C for the second.

`Cn1ncnc1COc1nn2c(-c3ccccc3F)nncc2c1-c1cc(F)ccc1F` [Example 14, 3-(2,5-Difluorophenyl)-7-(2-fluorophenyl)-2-(2-methyl-2H-[1,2,4]triazol-3-ylmethoxy)Pyrazolo[1,5-d][1,2,4]triazine] and `Cn1ncnc1COc1nn2c(-c3ccc(F)cc3F)nncc2c1-c1ccccc1F` [Example 52, 7-(2,4-Difluorophenyl)-3-(2-fluorophenyl)-2-(2-methyl-2H-[1,2,4]triazol-3-ylmethoxy)pyrazolo[1,5-d][1,2,4]triazine] cannot be ordered by melting point: 164 to 165 °C for the first, 164 to 166 °C for the second.

Compared with `Cn1ncnc1COc1nn2c(-c3ccccc3F)nncc2c1-c1cccnc1` [Example 35, 7-(2-Fluorophenyl)-2-(2-methyl-2H-[1,2,4]triazol-3-ylmethoxy)-3-(pyridin-3-yl)pyrazolo[1,5-d][1,2,4]triazine], `Cn1ncnc1COc1nn2c(-c3cccnc3)nncc2c1-c1ccccc1F` [Example 45, 3-(2-Fluorophenyl)-2-(2-methyl-2H-[1,2,4]triazol-3-ylmethoxy)-7-(pyridin-3-yl)pyrazolo[1,5-d][1,2,4]triazine] is lower in melting point: 181 to 183 °C for the first, 164 to 166 °C for the second.

First: Cn1ncnc1COc1nn2c(-c3ccccc3Cl)nncc2c1-c1ccccc1F [Example 88, 7-(2-Chlorophenyl)-3-(2-fluorophenyl)-2-(2-methyl-2H-[1,2,4]triazol-3-ylmethoxy)pyrazolo[1,5-d][1,2,4]triazine]
Second: Cn1ncnc1COc1nn2c(-c3ccccc3F)nncc2c1-c1ccccc1 [Example 1, 7-(2-Fluorophenyl)-2-(2-methyl-2H-[1,2,4]triazol-3-ylmethoxy)-3-phenylpyrazolo[1,5-d][1,2,4]triazine]
The melting point of the first is lower: 155 to 157 °C for the first, 176 °C for the second.

First: Cn1ncnc1COc1nn2c(-c3ccccc3F)nncc2c1-c1ccco1 [Example 55, 7-(2-Fluorophenyl)-3-(furan-2-yl)-2-(2-methyl-2H-[1,2,4]triazol-3-ylmethoxy)pyrazolo[1,5-d][1,2,4]triazine]
Second: Cn1ncnc1COc1nn2c(-c3ccccc3F)nncc2c1-c1ccccn1 [Example 53, 7-(2-Fluorophenyl)-2-(2-methyl-2H-[1,2,4]triazol-3-ylmethoxy)-3-(pyridin-2-yl)pyrazolo[1,5-d][1,2,4]triazine]
The melting point of the first is higher: 188 to 190 °C for the first, 186 to 187 °C for the second.

Compared with `Fc1ccccc1-c1c(OCc2nc3ccccn3n2)nn2c(-c3ccccc3F)nncc12` [Example 82, 3,7-bis(2-Fluorophenyl)-2-([1,2,4]triazolo[1,5-a]pyridin-2-ylmethoxy)pyrazolo[1,5-d][1,2,4]triazine], `Cn1c(COc2nn3c(-c4ccccc4F)nncc3c2-c2ccccc2F)nc2ccccc21` [Example 81, 3,7-bis(2-Fluorophenyl)-2-(1-methyl-1H-benzimidazol-2-ylmethoxy)pyrazolo[1,5-d][1,2,4]triazine] is higher in melting point: 208 to 209 °C for the first, 218 to 220 °C for the second.

First: Cn1ncnc1COc1nn2c(C3CC3)nncc2c1-c1ccccc1F [Example 89, 7-Cyclopropyl-3-(2-fluorophenyl)-2-(2-methyl-2H-[1,2,4]triazol-3-ylmethoxy)pyrazolo[1,5-d][1,2,4]triazine]
Second: Cn1ncnc1COc1nn2c(-c3c(F)cccc3F)nncc2c1-c1ccccc1F [Example 49, 7-(2,6-Difluorophenyl)-3-(2-fluorophenyl)-2-(2-methyl-2H-[1,2,4]triazol-3-ylmethoxy)pyrazolo[1,5-d][1,2,4]triazine]
The melting point of the first is lower: 97 to 99 °C for the first, 163 °C for the second.

Going from `Cn1ncnc1COc1nn2c(-c3ccccc3F)nncc2c1-c1c(F)cccc1F` [Example 15, 3-(2,6-Difluorophenyl)-7-(2-fluorophenyl)-2-(2-methyl-2H-[1,2,4]triazol-3-ylmethoxy)pyrazolo[1,5-d][1,2,4]triazine] to `Cn1ncnc1COc1nn2c(-c3c(F)cccc3F)nncc2c1-c1ccccc1` [Example 10, 7-(2,6-Difluorophenyl)-2-(2-methyl-2H-[1,2,4]triazol-3-ylmethoxy)-3-phenylpyrazolo[1,5-d][1,2,4]triazine], the melting point falls from 196 °C to 179 °C.

First: CCn1ncnc1COc1nn2c(-c3ccccc3F)nncc2c1C(C)(C)CC [Example 40, 3-(1,1-Dimethylpropyl)-2-(2-ethyl-2H-[1,2,4]triazol-3-ylmethoxy)-7-(2-fluorophenyl)pyrazolo[1,5-d][1,2,4]triazine]
Second: CCn1ncnc1COc1nn2c(-c3ccccc3F)nncc2c1C(C)(C)C [Example 25, 3-(1,1-Dimethylethyl)-2-(2-ethyl-2H-[1,2,4]triazol-3-ylmethoxy)-7-(2-fluorophenyl)pyrazolo[1,5-d][1,2,4]triazine]
The melting point of the first is lower: 89 to 92 °C for the first, 105 °C for the second.

Compared with `Cn1ncnc1COc1nn2c(-c3ccccc3F)nncc2c1-c1cccc(-c2cccnc2)c1` [Example 95, 7-(2-Fluorophenyl)-2-(2-methyl-2H-[1,2,4]triazol-3-ylmethoxy)-3-[3-(pyridin-3-yl)phenyl]pyrazolo[1,5-d][1,2,4]triazine], `Cn1ncnc1COc1nn2c(-c3ccccc3F)nncc2c1-c1cccc(N)c1` (as salt: hemisulfate) [Example 94, 3-(3-Aminophenyl)-7-(2-fluorophenyl)-2-(2-methyl-2H-[1,2,4]triazol-3-ylmethoxy)pyrazolo[1,5-d][1,2,4]triazine] is higher in melting point: 157 to 163 °C for the first, 196 to 200 °C for the second.

First: Fc1ccccc1-c1nncc2c(-c3ccccc3)c(OCc3ccccn3)nn12 [Example 8, 7-(2-Fluorophenyl)-3-phenyl-2-(pyridin-2-ylmethoxy)pyrazolo[1,5-d][1,2,4]triazine]
Second: Fc1ccccc1-c1c(OCc2cnc3ccccc3n2)nn2c(-c3ccccc3F)nncc12 [Example 79, 3,7-bis(2-Fluorophenyl)-2-(quinoxalin-2-ylmethoxy)pyrazolo[1,5-d][1,2,4]triazine]
The melting point of the first is lower: 182 to 183 °C for the first, 209 °C for the second.

First: Fc1ccccc1-c1c(OCc2cscn2)nn2c(-c3ccccc3F)nncc12 [Example 73, 3,7-bis(2-Fluorophenyl)-2-(thiazol-4-ylmethoxy)pyrazolo[1,5-d][1,2,4]triazine]
Second: Fc1ccccc1-c1c(OCc2cccnc2)nn2c(-c3ccccc3F)nncc12 [Example 63, 3,7-bis(2-Fluorophenyl)-2-(pyridin-3-ylmethoxy)pyrazolo[1,5-d][1,2,4]triazine]
The melting point of the first is higher: 212 °C for the first, 146 °C for the second.

Going from `Cn1ncnc1COc1nn2c(-c3ccccc3)nncc2c1-c1ccccc1` [Example 12, 3,7-Diphenyl-2-(2-methyl-2H-[1,2,4]triazol-3-ylmethoxy)pyrazolo[1,5-d][1,2,4]triazine] to `Cn1ncnc1COc1nn2c(-c3ccccc3F)nncc2c1-c1ccc(F)cc1` [Example 4, 3-(4-Fluorophenyl)-7-(2-fluorophenyl)-2-(2-methyl-2H-[1,2,4]triazol-3-ylmethoxy)pyrazolo[1,5-d][1,2,4]triazine], the melting point rises from 185 °C to 192 °C.

First: CCn1ncnc1COc1nn2c(-c3ccc(F)cc3)nncc2c1-c1ccccc1F [Example 47, 2-(2-Ethyl-2H-[1,2,4]triazol-3-ylmethoxy)-3-(2-fluorophenyl)-7-(4-fluorophenyl)pyrazolo[1,5-d][1,2,4]triazine]
Second: Cn1ncnc1COc1nn2c(-c3ccccc3F)nncc2c1-c1cccc(C(F)(F)F)c1 [Example 18, 7-(2-Fluorophenyl)-2-(2-methyl-2H-[1,2,4]triazol-3-ylmethoxy)-3-[3-(trifluoromethyl)phenyl]pyrazolo[1,5-d][1,2,4]triazine]
The melting point of the first is higher: 179 °C for the first, 152 to 155 °C for the second.
